ChEMBL document CHEMBL3286089, “Multiparameter optimization in CNS drug discovery: design of pyrimido[4,5-d]azepines as potent 5-hydroxytryptamine 2C (5-HT₂C) receptor agonists with exquisite functional selectivity over 5-HT₂A and 5-HT₂B receptors” (J Med Chem, 2014)

Columns and labels:
[1] = Octanol-water partition coefficient, log D of the compound at pH 7.4; format: physicochemical
[2] = Intrinsic clearance in human hepatocytes assessed as 10^6 cells; format: ADME, cell-based, Hepatocyte; conditions: read-out: CLH
[3] = Dissociation constant, pKa of the compound; format: physicochemical
[4] = Intrinsic clearance in dog liver microsomes; format: ADME, Canis lupus familiaris
[5] = Intrinsic clearance in rat liver microsomes; format: ADME; conditions: read-out: CLH
[6] = Intrinsic clearance in human liver microsomes; format: ADME; conditions: read-out: CLH

Row | logD [1] | hepatocyte CLint [2] [µL/min/1e6 cells] | pKa [3] | microsomal CLint [4] [µL/min/mg] | microsomal CLint [5] [µL/min/mg] | microsomal CLint [6] [µL/min/mg] | Compound
1 | 0.7 |  |  |  |  |  | CNc1nc(Cc2ccccc2)nc2c1CCNC[C@H]2C
2 | 0.7 | 3.4 | 8.6 | 114 | 329 | 16 | CNc1nc(Cc2ccccc2)nc2c1CCNC[C@@H]2C
3 | 0.1 |  |  |  |  |  | Nc1nc(Cc2ccccc2)nc2c1CCNCC2
